{"source": "patent US20220402903A1", "about": "“ISOXAZOLINE COMPOUND WITH OPTICAL ACTIVITY AND USE” (SHENYANG SINOCHEM AGROCHEMICALS R&D CO., LTD., priority 2019, published 2022)", "assay_in_all_cases": "Greenhouse herbicidal activity, post-emergence stem and leaf spray", "format_in_all_cases": "in vivo", "key": {"Echinochloa crusgalli": {"system": "Echinochloa crusgalli", "details": "for Control effect on Echinochloa crusgalli: post-emergence, visual, 0 = no control effect, 100% = weeds completely killed", "from_the_text": "(§1) The test method of the herbicidal activity of the compound in the present invention is as follows:\n(§2) Quantitative grass weed (Echinochloa crusgalli and Setaria viridis) and broad-leaved weed (Abutilon theophrasti and Zinnia elegans) seeds were sown in paper cups having a diameter of 7 cm and containing nutrient soil, after sowing, the seeds were covered with 1 cm of soil, the soil was pressed and watered, and then the seeds were cultivated in a greenhouse according to a conventional method. The grass weeds grew to 2-3 leaf stages, the broad-leaved weeds grew to 2-4 leaf stages, stem and leaves were sprayed. Before emergence, the soil was sprayed within 24 hours after sowing. According to the design dose of the test, spray treatment was carried out on a track-type crop sprayer (designed and produced by British Engineer Research Ltd.) (spray pressure is 1.95 kg/cm^2, spray volume is 500 L/hm^2 and track speed is 1.48 km/h). The test was repeated for three times. The test material was treated and then placed in an operation hall. The medicinal liquid was naturally dried in the shade, and then was placed in a greenhouse and managed according to the conventional method. The response of the weeds to the test compound was observed and recorded. After treatment, the control effects of the test compound on the weeds were visually inspected regularly.\n(§3) The grading standards of the control effects: 0 represents no control effect and 100% represents that the weeds are completely killed or greatly controlled."}, "Setaria viridis": {"system": "Setaria viridis", "details": "for Control effect on Setaria viridis: post-emergence, visual, 0 = no control effect, 100% = weeds completely killed", "from_the_text": "as §1, §2, §3"}, "Abutilon theophrasti": {"system": "Abutilon theophrasti", "details": "for Control effect on Abutilon theophrasti: post-emergence, dose 4 g a.i./hm^2, visual, 0 = no control effect, 100% = weeds completely killed", "from_the_text": "as §1, §2, §3"}, "Zinnia elegans": {"system": "Zinnia elegans", "details": "for Control effect on Zinnia elegans: post-emergence, dose 4 g a.i./hm^2, visual, 0 = no control effect, 100% = weeds completely killed", "from_the_text": "as §1, §2, §3"}, "[1]": {"details": "post-emergence treatment, dose 4-8 g a.i./hm^2"}}, "data": [{"molecule": "CCOC(=O)C1(C)CC(c2cc(-n3c(=O)cc(C(F)(F)F)n(C)c3=O)c(F)cc2Cl)=NO1", "note": "(stereo not shown) [CN105753853 Compound 6, reference compound]", "values": [{"measurement": "Control effect on Echinochloa crusgalli", "setting": "Echinochloa crusgalli; dose 4 g a.i./hm^2", "result": 45, "unit": "%"}, {"measurement": "Control effect on Echinochloa crusgalli", "setting": "Echinochloa crusgalli; dose 8 g a.i./hm^2", "result": 50, "unit": "%"}, {"measurement": "Control effect on Setaria viridis", "setting": "Setaria viridis; dose 4 g a.i./hm^2", "result": 25, "unit": "%"}, {"measurement": "Control effect on Setaria viridis", "setting": "Setaria viridis; dose 8 g a.i./hm^2", "result": 55, "unit": "%"}, {"measurement": "Control effect on Abutilon theophrasti", "setting": "Abutilon theophrasti", "result": 60, "unit": "%"}, {"measurement": "Control effect on Zinnia elegans", "setting": "Zinnia elegans", "result": 90, "unit": "%"}]}, {"molecule": "CCOC(=O)[C@]1(C)CC(c2cc(-n3c(=O)cc(C(F)(F)F)n(C)c3=O)c(F)cc2Cl)=NO1", "note": "[Compound 3]", "values": [{"measurement": "Herbicidal activity on Echinochloa crusgalli (in words)", "setting": "Echinochloa crusgalli; [1]", "result": "high herbicidal activity"}, {"measurement": "Control effect on Echinochloa crusgalli", "setting": "Echinochloa crusgalli; dose 4 g a.i./hm^2", "result": 90, "unit": "%"}, {"measurement": "Control effect on Echinochloa crusgalli", "setting": "Echinochloa crusgalli; dose 8 g a.i./hm^2", "result": 98, "unit": "%"}, {"measurement": "Herbicidal activity on Setaria viridi (in words)", "setting": "Setaria viridis; [1]", "result": "high herbicidal activity"}, {"measurement": "Control effect on Setaria viridis", "setting": "Setaria viridis; dose 4 g a.i./hm^2", "result": 75, "unit": "%"}, {"measurement": "Control effect on Setaria viridis", "setting": "Setaria viridis; dose 8 g a.i./hm^2", "result": 85, "unit": "%"}, {"measurement": "Herbicidal activity on Abutilon theophrasti (in words)", "setting": "Abutilon theophrasti; [1]", "result": "high herbicidal activity"}, {"measurement": "Control effect on Abutilon theophrasti", "setting": "Abutilon theophrasti", "result": 90, "unit": "%"}, {"measurement": "Herbicidal activity on Zinnia elegans (in words)", "setting": "Zinnia elegans; [1]", "result": "high herbicidal activity"}, {"measurement": "Control effect on Zinnia elegans", "setting": "Zinnia elegans", "result": 100, "unit": "%"}]}]}
